Source: patent publication US12037333B2, “Pyridopyrazine and pyridotriazine inhibitors of influenza virus replication” (priority 2018, dated 2024)

System: Influenza type A (strain A/PR/8/34, ATCC VR-95)
Assay: Influenza antiviral assay: inhibition of virus-induced cytopathic effects (CPE) in MDCK cells, XTT dye reduction
Format: cell-based
Conditions: strain A/PR/8/34, MDCK cells, CPE inhibition at 4 days
[1] = Influenza A virus, H1N1 / PR/8, MDCK, 96 h

## CC1N(CC(F)F)C(=O)c2c(O)c(=O)ccn2N1C12c3ccccc3CC1Cc1c2ccc(F)c1F (stereo not drawn) [Compound A136]
Influenza A (H1N1)
  EC50: 375 to 500 nM

## CCN1CN(C23c4ccccc4CC2(CC)Cc2c3ccc(F)c2F)n2ccc(=O)c(O)c2C1=O (stereo not drawn) [Compound A56]
[1]
  EC50: < 125 nM

## CCOC12Cc3ccccc3C1(N1CN(CC)C(=O)c3c(O)c(=O)ccn31)c1ccccc1C2 (stereo not drawn) [Compound A48, 1-(9a-Ethoxy-9a,10-dihydroindeno[1,2-a]inden-4b(9H)-yl)-3-ethyl-5-hydroxy-2,3-dihydro-1H-pyrido[2,1-f][1,2,4]triazine-4,6-dione]
[1]
  EC50: < 125 nM

## COCCN1CN(C23c4ccccc4CC2Cc2c(F)cccc23)n2ccc(=O)c(O)c2C1=O (stereo not drawn) [Compound A69]
[1]
  EC50: < 125 nM

## O=C1c2c(O)c(=O)ccn2N(C23c4ccccc4CC2Cc2cc(F)c(F)cc23)CN1CCc1ccccc1 (stereo not drawn) [Compound A22, 1-(2,3-difluoro-9a,10-dihydroindeno[1,2-a]inden-4b(9H)-yl)-5-hydroxy-3-phenethyl-2,3-dihydro-1H-pyrido[2,1-f][1,2,4]triazine-4,6-dione]
[1]
  EC50: 250 to 375 nM

## CCN1CN(C23c4cccc(F)c4CC2(C)Cc2c(F)cccc23)n2ccc(=O)c(O)c2C1=O (stereo not drawn) [Compound A51]
[1]
  EC50: < 125 nM

## CC1N(C)C(=O)c2c(O)c(=O)ccn2N1C12c3ccccc3CC1Cc1c2ccc(F)c1F (stereo not drawn) [Compound A64]
[1]
  EC50: < 125 nM

## O=C1c2c(O)c(=O)ccn2N(C23c4ccccc4CC2Cc2c3ccc(F)c2F)CN1CCc1cccc(F)c1 (stereo not drawn) [Compound A27, 1-(1,2-difluoro-9a,10-dihydroindeno[1,2-a]inden-4b(9H)-yl)-3-(3-fluorophenethyl)-5-hydroxy-2,3-dihydro-1H-pyrido[2,1-f][1,2,4]triazine-4,6-dione]
[1]
  EC50: 125 to 250 nM

## O=C1c2c(O)c(=O)ccn2N(C23c4ccccc4CC2Cc2cc(F)c(F)cc23)CN1Cc1ccccc1 (stereo not drawn) [Compound A21, 3-benzyl-1-(2,3-difluoro-9a,10-dihydroindeno[1,2-a]inden-4b(9H)-yl)-5-hydroxy-2,3-dihydro-1H-pyrido[2,1-f][1,2,4]triazine-4,6-dione]
[1]
  EC50: 250 to 375 nM

## CC1N(CC(F)F)C(=O)c2c(O)c(=O)ccn2N1C12c3ccccc3CC1Cc1c(F)cccc12 (stereo not drawn) [Compound A139]
[1]
  EC50: 125 to 250 nM

## O=C1c2c(O)c(=O)ccn2N(C23c4cccc(F)c4CC2Cc2c(F)cccc23)CN1CCc1ccccc1 (stereo not drawn) [Compound A86]
[1]
  EC50: 125 to 250 nM

## CN1CN(C23c4ccccc4CC2Cc2c3ccc(F)c2Cl)n2ccc(=O)c(O)c2C1=O (stereo not drawn) [Compound A46, 1-(1-Chloro-2-fluoro-9a,10-dihydroindeno[1,2-a]inden-4b(9H)-yl)-5-hydroxy-3-methyl-2,3-dihydro-1H-pyrido[2,1-f][1,2,4]triazine-4,6-dione]
[1]
  EC50: < 125 nM

## COCCN1CN(C23c4ccccc4CC2Cc2c3ccc(F)c2F)n2ccc(=O)c(O)c2C1=O (stereo not drawn) [Compound A70]
[1]
  EC50: < 125 nM

## CN1CN(C23c4ccccc4CC2Cc2ccc(F)cc23)n2ccc(=O)c(O)c2C1=O (stereo not drawn) [Compound A53]
[1]
  EC50: < 125 nM

## O=C1c2c(O)c(=O)ccn2N(C23c4ccccc4CC2Cc2ccccc23)CN1CCOc1ccccc1 (stereo not drawn) [Compound A7, 1-(9a,10-Dihydro-9H-indeno[1,2-a]inden-4b-yl)-5-hydroxy-3-(2-phenoxy-ethyl)-2,3-dihydro-1H-pyrido[2,1-t][1,2,4]triazine-4,6-dione]
[1]
  EC50: > 500 nM

## CCN1CN(C23c4ccccc4CC2Cc2c3ccc(Cl)c2Cl)n2ccc(=O)c(O)c2C1=O (stereo not drawn) [Compound A161]
[1]
  EC50: < 125 nM

## O=C1c2c(O)c(=O)ccn2N(C23c4ccccc4CC2Cc2cc(F)c(F)cc23)CN1CC1CCOCC1 (stereo not drawn) [Compound A16, 1-(2,3-Difluoro-9a,10-dihydro-9H-indeno[1,2-a]inden-4b-yl)-5-hydroxy-3-(tetrahydro-pyran-4-ylmethyl)-2,3-dihydro-1H-pyrido[2,1-f][1,2,4]triazine-4,6-dione]
[1]
  EC50: < 125 nM

## O=C1c2c(O)c(=O)ccn2N(C23c4ccccc4CC2Cc2cc(F)c(F)cc23)CN1Cc1cccc(F)c1 (stereo not drawn) [Compound A24, 1-(2,3-difluoro-9a,10-dihydroindeno[1,2-a]inden-4b(9H)-yl)-3-(3-fluorobenzyl)-5-hydroxy-2,3-dihydro-1H-pyrido[2,1-f][1,2,4]triazine-4,6-dione]
[1]
  EC50: > 500 nM

## O=C1c2c(O)c(=O)ccn2N(C23c4ccccc4CC2Cc2ccccc23)CN1Cc1cccc(Cl)c1F (stereo not drawn) [Compound A31, 3-(3-chloro-2-fluorobenzyl)-1-(9a,10-dihydroindeno[1,2-a]inden-4b(9H)-yl)-5-hydroxy-2,3-dihydro-1H-pyrido[2,1-f][1,2,4]triazine-4,6-dione]
[1]
  EC50: > 500 nM

## CCN1CN(C23c4cccc(F)c4CC2Cc2c(Cl)cccc23)n2ccc(=O)c(O)c2C1=O (stereo not drawn) [Compound A151]
[1]
  EC50: < 125 nM

## CN1CN(C23c4ccccc4CC2(C)Cc2c3ccc(F)c2F)n2ccc(=O)c(O)c2C1=O (stereo not drawn) [Compound A165]
[1]
  EC50: < 125 nM

## CCN1CN(C23c4ccccc4CC2Cc2c(C)cccc23)n2ccc(=O)c(O)c2C1=O (stereo not drawn) [Compound A82]
[1]
  EC50: < 125 nM

## O=C1c2c(O)c(=O)ccn2N(C23c4ccccc4CC2Cc2c(F)cccc23)CN1CC1CCCCO1 (stereo not drawn) [Compound A133]
[1]
  EC50: 125 to 250 nM

## COCCN1CN(C23c4cccc(F)c4CC2Cc2c(F)cccc23)n2ccc(=O)c(O)c2C1=O (stereo not drawn) [Compound A49]
[1]
  EC50: < 125 nM

## CCN1CN(C23c4cccc(C)c4CC2Cc2c(F)cccc23)n2ccc(=O)c(O)c2C1=O (stereo not drawn) [Compound A66]
[1]
  EC50: 125 to 250 nM

## CN1CN(C23c4ccc(F)cc4CC2Cc2cc(F)ccc23)n2ccc(=O)c(O)c2C1=O (stereo not drawn) [Compound A3, 1-(2,7-Difluoro-9a,10-dihydro-9H-indeno[1,2-a]inden-4b-yl)-5-hydroxy-3-methyl-2,3-dihydro-1H-pyrido[2,1-f][1,2,4]triazine-4,6-dione]
[1]
  EC50: 125 to 250 nM

## O=C1c2c(O)c(=O)ccn2N(C23c4ccccc4CC2Cc2c3ccc(F)c2F)CN1Cc1ccccc1 (stereo not drawn) [Compound A11, 3-Benzyl-1-(1,2-difluoro-9a,10-dihydro-9H-indeno[1,2-a]inden-4b-yl)-5-hydroxy-2,3-dihydro-1H-pyrido[2,1-t][1,2,4]triazine-4,6-dione]
[1]
  EC50: > 500 nM

## CN1CN(C23c4ccccc4CC2(C)Cc2cc(F)ccc23)n2ccc(=O)c(O)c2C1=O (stereo not drawn) [Compound A126]
[1]
  EC50: 125 to 250 nM

## O=C1c2c(O)c(=O)ccn2N(C23c4ccccc4CC2Cc2cc(F)c(F)cc23)CN1CC1CC1 (stereo not drawn) [Compound A13, 3-Cyclopropylmethyl-1-(2,3-difluoro-9a,10-dihydro-9H-indeno[1,2-a]inden-4b-yl)-5-hydroxy-2,3-dihydro-1H-pyrido[2,1-f][1,2,4]triazine-4,6-dione]
[1]
  EC50: < 125 nM

## CN1CN(C23c4ccccc4CC2Cc2cccc(F)c23)n2ccc(=O)c(O)c2C1=O (stereo not drawn) [Compound A145]
[1]
  EC50: < 125 nM

## CC1N(C)C(=O)c2c(O)c(=O)ccn2N1C12c3ccccc3CC1Cc1ccccc12 (stereo not drawn) [Compound A158]
[1]
  EC50: 125 to 250 nM

## CCN1CN(C23c4ccccc4CC2Cc2ccc(F)cc23)n2ccc(=O)c(O)c2C1=O (stereo not drawn) [Compound A52]
[1]
  EC50: < 125 nM

## CC1N(CC(F)F)C(=O)c2c(O)c(=O)ccn2N1C12c3ccccc3CC1Cc1c2ccc(F)c1F (stereo not drawn) [Compound A137]
Influenza A (H1N1)
  EC50: 125 to 250 nM

## CC(CCN1CN(C23c4ccccc4CC2Cc2ccccc23)n2ccc(=O)c(O)c2C1=O)c1ccccc1 (stereo not drawn) [Compound A32, 1-(9a,10-dihydroindeno[1,2-a]inden-4b(9H)-yl)-5-hydroxy-3-(3-phenylbutyl)-2,3-dihydro-1H-pyrido[2,1-f][1,2,4]triazine-4,6-dione]
[1]
  EC50: > 500 nM

## CC(CCN1CN(C23c4ccccc4CC2Cc2ccccc23)n2ccc(=O)c(O)c2C1=O)c1ccccc1 (stereo not drawn) [Compound A33]
Influenza A (H1N1)
  EC50: 375 to 500 nM

## Cc1c(F)ccc2c1CC1Cc3ccccc3C21N1CN(C)C(=O)c2c(O)c(=O)ccn21 (stereo not drawn) [Compound A78]
[1]
  EC50: < 125 nM

## CCN1CN(C23c4ccccc4CC2Cc2c3ccc(F)c2Cl)n2ccc(=O)c(O)c2C1=O (stereo not drawn) [Compound A47]
[1]
  EC50: < 125 nM

## O=C1c2c(O)c(=O)ccn2N(C23c4ccccc4CC2Cc2c3ccc(F)c2F)CN1CC1CCCC1 (stereo not drawn) [Compound A100]
[1]
  EC50: > 500 nM

## CC(C)N1CN(C23c4ccccc4CC2(C)Cc2ccccc23)n2ccc(=O)c(O)c2C1=O (stereo not drawn) [Compound A50, 5-hydroxy-3-isopropyl-1-(9a-methyl-9a,10-dihydroindeno[1,2-a]inden-4b(9H)-yl)-2,3-dihydro-1H-pyrido[2,1-f] [1,2,4] triazine-4,6-dione]
[1]
  EC50: < 125 nM
